Measured values published in the supplement of paper PMC6045584.
± gives the standard deviation of the averaged measurements.

Columns and labels:
[1] = compound: CNC(=O)c1cc(Oc2ccc(NC(=O)Nc3ccc(Cl)c(C(F)(F)F)c3)cc2)ccn1 [SORAFENIB]; assay: surviving fraction relative to DMSO-only wells; higher = less growth inhibition; conditions: exposure time: 5 days
Summary of the method: (§1)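 A line counted only if its three screens reached replicate Pearson r >0.7 and median Z' >0.3. Tumour cells in log phase were seeded at 250–500 per well in 384-well plates and, after 24 hours, kept in continuous contact with inhibitors at 0.5, 1, 5, 10, 50, 100, 500 and 1000 nM for five days. Surviving fraction was taken from CellTiter-Glo luminescence relative to the median of DMSO-only wells.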

[2] = compound: COc1cc2ncnc(Nc3ccc(F)c(Cl)c3)c2cc1NC(=O)/C=C/CN1CCCCC1; assay: as above; conditions: exposure time: 5 days
Summary of the method: as §1

Row | Test System | surviving fraction ([1]; 0.5 nM) | surviving fraction ([1]; 5 nM) | surviving fraction ([1]; 10 nM) | surviving fraction ([1]; 50 nM) | surviving fraction ([1]; 100 nM) | surviving fraction ([1]; 500 nM) | surviving fraction ([1]; 1000 nM) | surviving fraction ([2]; 0.5 nM) | surviving fraction ([2]; 1 nM) | surviving fraction ([2]; 5 nM) | surviving fraction ([2]; 10 nM) | surviving fraction ([2]; 50 nM) | surviving fraction ([2]; 100 nM) | surviving fraction ([2]; 500 nM) | surviving fraction ([2]; 1000 nM) | surviving fraction ([1]; 1 nM)
1 | HCC1395 BREAST | 1.11 ± 0.057 | 1.27 ± 0.049 | 1.16 ± 0.17 | 1.26 ± 0.034 | 1.24 ± 0.15 | 1.18 ± 0.21 | 1.12 ± 0.048 | 0.92 ± 0.09 | 0.93 ± 0.037 | 1.08 ± 0.099 | 1.03 ± 0.036 | 1.05 ± 0.16 | 1.01 ± 0.21 | 0.896 ± 0.14 | 0.809 ± 0.15 | –
2 | NOS1 BONE | 1.04 ± 0.11 | 1.12 ± 0.17 | 0.997 ± 0.058 | 0.995 ± 0.053 | 0.874 ± 0.056 | 0.684 ± 0.0075 | 0.613 ± 0.062 | 1.1 ± 0.045 | 1.15 ± 0.077 | 1.14 ± 0.051 | 1.17 ± 0.094 | 1.12 ± 0.16 | 0.968 ± 0.033 | 0.26 ± 0.011 | 0.135 ± 0.012 | –
3 | RDES SOFT TISSUE | 1.24 ± 0.085 | 1.18 ± 0.1 | 0.918 ± 0.1 | 1.15 ± 0.058 | 1.24 ± 0.066 | 1.18 ± 0.13 | 1.09 ± 0.1 | 1.27 ± 0.17 | 1.28 ± 0.086 | 1.28 ± 0.059 | 1.33 ± 0.18 | 1.28 ± 0.2 | 1.23 ± 0.13 | 1.23 ± 0.15 | 1.22 ± 0.1 | 1.12 ± 0.098
4 | MDAMB453 BREAST | 1.08 ± 0.064 | 1.11 ± 0.074 | 1.09 ± 0.011 | 1.12 ± 0.056 | 1.12 ± 0.091 | – | 1.04 ± 0.047 | 1.05 ± 0.021 | 1.04 ± 0.08 | 1.03 ± 0.1 | 1.09 ± 0.093 | 1.07 ± 0.044 | 0.887 ± 0.048 | 0.705 ± 0.033 | 0.509 ± 0.069 | –
5 | NY BONE | 1.01 ± 0.019 | 1.04 ± 0.035 | 1.01 ± 0.027 | 1.08 ± 0.036 | 1.07 ± 0.044 | 1.02 ± 0.013 | 1.034 ± 0.0083 | 0.99 ± 0.014 | 0.975 ± 0.032 | 1.05 ± 0.032 | 1.01 ± 0.071 | 1.04 ± 0.044 | 1 ± 0.051 | 0.756 ± 0.011 | 0.514 ± 0.01 | 0.975 ± 0.033
6 | HOS BONE | 1.03 ± 0.043 | 1.025 ± 0.0095 | 1.03 ± 0.018 | 1.09 ± 0.014 | – | – | – | 1.017 ± 0.0078 | 1 ± 0.018 | 1.02 ± 0.017 | 1.02 ± 0.015 | 1.05 ± 0.019 | 1.04 ± 0.023 | 0.951 ± 0.057 | 0.888 ± 0.032 | 1.015 ± 0.0025
7 | CAL51 BREAST | 0.979 ± 0.04 | 0.9937 ± 0.0025 | 1.01 ± 0.022 | 1.12 ± 0.046 | 1.1 ± 0.05 | 1.02 ± 0.034 | 0.977 ± 0.041 | 0.985 ± 0.05 | 1.03 ± 0.076 | 1 ± 0.086 | 0.968 ± 0.031 | 1.03 ± 0.08 | 1.02 ± 0.1 | 0.9793 ± 0.0063 | 0.848 ± 0.027 | 0.991 ± 0.014
8 | MDAMB134 BREAST | 1.04 ± 0.067 | 1.06 ± 0.033 | 1.02 ± 0.031 | 1.06 ± 0.053 | 1.14 ± 0.091 | 1.21 ± 0.18 | – | 0.947 ± 0.17 | 1.07 ± 0.061 | 0.944 ± 0.014 | 0.981 ± 0.14 | 1.05 ± 0.28 | 1.02 ± 0.21 | 0.795 ± 0.012 | 0.732 ± 0.013 | 1.26 ± 0.12
9 | KPD BONE | 0.922 ± 0.019 | 1.03 ± 0.032 | – | 0.989 ± 0.075 | – | – | – | 1.03 ± 0.068 | 1.05 ± 0.04 | 1.04 ± 0.037 | 1.04 ± 0.015 | 1.05 ± 0.079 | 1.04 ± 0.019 | 0.718 ± 0.034 | 0.493 ± 0.025 | –
10 | MG63 BONE | 0.996 ± 0.025 | 1.044 ± 0.01 | 1.015 ± 0.0067 | 1.13 ± 0.014 | 1.13 ± 0.031 | 1.1 ± 0.025 | 1.12 ± 0.012 | 1.04 ± 0.072 | 1 ± 0.049 | 1.05 ± 0.033 | 1.06 ± 0.062 | 1.04 ± 0.056 | 1.03 ± 0.08 | 0.911 ± 0.039 | 0.89 ± 0.073 | 1 ± 0.018
11 | SG28 HEADNECK | 1.17 ± 0.13 | 1.18 ± 0.1 | 1.22 ± 0.18 | 1.21 ± 0.066 | 1.27 ± 0.1 | 1.44 ± 0.19 | 1.32 ± 0.14 | 0.962 ± 0.064 | 0.924 ± 0.058 | 0.626 ± 0.026 | 0.54 ± 0.013 | 0.514 ± 0.029 | 0.494 ± 0.025 | 0.375 ± 0.037 | 0.238 ± 0.019 | –
12 | CME SYNOVIAL | 1.23 ± 0.11 | 1.28 ± 0.072 | 1.38 ± 0.075 | 1.28 ± 0.058 | 1.4 ± 0.12 | 1.27 ± 0.073 | 1.15 ± 0.025 | 1.2 ± 0.09 | 1.4 ± 0.17 | 1.29 ± 0.12 | 1.39 ± 0.15 | 1.42 ± 0.18 | 1.37 ± 0.11 | 1.26 ± 0.098 | 1.27 ± 0.12 | 1.2 ± 0.07
13 | MDAMB361 BREAST | 0.813 ± 0.078 | 0.904 ± 0.029 | – | 0.909 ± 0.034 | 0.837 ± 0.03 | 0.796 ± 0.049 | 0.84 ± 0.098 | 0.896 ± 0.049 | 0.909 ± 0.035 | 0.922 ± 0.052 | 0.833 ± 0.03 | 0.738 ± 0.017 | 0.745 ± 0.055 | 0.586 ± 0.019 | 0.543 ± 0.046 | 0.862 ± 0.089
14 | MCF7 BREAST | 0.866 ± 0.025 | 0.904 ± 0.021 | 0.851 ± 0.022 | 0.928 ± 0.047 | 0.939 ± 0.034 | 0.995 ± 0.074 | 0.873 ± 0.025 | 0.908 ± 0.061 | 0.938 ± 0.022 | 0.922 ± 0.08 | 0.971 ± 0.096 | 1.01 ± 0.043 | 0.966 ± 0.034 | 1.01 ± 0.012 | 0.927 ± 0.07 | 0.86 ± 0.068
15 | CAL120 BREAST | 0.959 ± 0.026 | 0.931 ± 0.025 | – | 1.02 ± 0.014 | 1.01 ± 0.038 | 0.973 ± 0.023 | 0.942 ± 0.032 | 0.98 ± 0.016 | 0.952 ± 0.014 | 0.965 ± 0.021 | 0.973 ± 0.038 | 0.959 ± 0.022 | 0.961 ± 0.04 | 0.837 ± 0.025 | 0.543 ± 0.019 | 0.9315 ± 0.0074
16 | HU09 BONE | 0.95 ± 0.061 | 1.01 ± 0.099 | 0.95 ± 0.072 | 0.809 ± 0.061 | 0.675 ± 0.063 | 0.512 ± 0.016 | 0.433 ± 0.02 | 1.09 ± 0.03 | 0.996 ± 0.062 | 1.14 ± 0.028 | 1.11 ± 0.12 | 1.15 ± 0.019 | 1.01 ± 0.12 | 0.635 ± 0.0066 | 0.432 ± 0.026 | 0.951 ± 0.089
17 | JIMT1 BREAST | – | 1.02 ± 0.022 | 0.97 ± 0.014 | – | 1.05 ± 0.046 | – | 0.986 ± 0.071 | 1 ± 0.044 | 0.989 ± 0.031 | 0.91883 ± 0.00029 | 0.862 ± 0.012 | 0.653 ± 0.013 | 0.667 ± 0.016 | 0.545 ± 0.019 | 0.362 ± 0.025 | 0.986 ± 0.028
18 | SG31 HEADNECK | 1.03 ± 0.11 | 1.09 ± 0.092 | 1.08 ± 0.15 | 1.2 ± 0.31 | 1.07 ± 0.092 | 1.4 ± 0.22 | 1.22 ± 0.13 | 0.973 ± 0.13 | 0.87 ± 0.19 | 0.617 ± 0.16 | 0.624 ± 0.086 | 0.556 ± 0.14 | 0.519 ± 0.07 | 0.486 ± 0.1 | 0.524 ± 0.021 | 1.1 ± 0.11
19 | SNU475 LIVER | 1.08 ± 0.036 | 1.04 ± 0.03 | 1.05 ± 0.032 | – | – | 1.17 ± 0.031 | 1.07 ± 0.042 | 0.967 ± 0.017 | 0.96 ± 0.017 | 0.92 ± 0.037 | 0.927 ± 0.086 | 0.897 ± 0.022 | 0.895 ± 0.05 | 0.698 ± 0.038 | 0.481 ± 0.028 | –
20 | CASKI CERVIX | 0.895 ± 0.04 | 0.983 ± 0.044 | 0.969 ± 0.019 | 1.13 ± 0.077 | 1.13 ± 0.075 | 1.05 ± 0.019 | 0.865 ± 0.045 | 0.801 ± 0.054 | 0.762 ± 0.015 | 0.468 ± 0.0036 | 0.336 ± 0.024 | 0.285 ± 0.025 | 0.2623 ± 0.0023 | 0.0627 ± 0.013 | 0.024 ± 0.002 | 0.94 ± 0.054
21 | SUM149.B1*.S BREAST | 1.1 ± 0.025 | 1.08 ± 0.05 | 1.05 ± 0.033 | – | 1.202 ± 0.0063 | 0.807 ± 0.024 | 0.609 ± 0.04 | 1.06 ± 0.066 | 1.03 ± 0.035 | 1.02 ± 0.02 | 1.03 ± 0.043 | 0.962 ± 0.026 | 0.977 ± 0.036 | 0.833 ± 0.026 | 0.914 ± 0.043 | 1.051 ± 0.004
22 | OS25HAL BONE | 0.99 ± 0.023 | 1.03 ± 0.035 | – | 1.06 ± 0.018 | 1.01 ± 0.049 | 0.855 ± 0.077 | 0.645 ± 0.056 | 0.995 ± 0.013 | 0.972 ± 0.011 | 1.02 ± 0.032 | 0.981 ± 0.0017 | 1.05 ± 0.044 | 1.07 ± 0.015 | 1.012 ± 0.0087 | 0.964 ± 0.011 | 0.984 ± 0.0092
